Where only a bound is given, the exact number is not on record here.

The first assay addresses histone deacetylase (HDAC Enzyme). The experiment in a line: Inhibition of Histone Deacetylase Enzymatic Activity (Boc-Lys(Ac)-AMC, Fluor-de-Lys developer). As to conditions: Table 10; read-out: HDAC Inhibition (IC50 μM) HDAC Enzyme. It counts as biochemical. The protocol:
The following protocol is used to assay the compounds of the invention.
The mixture is pre-incubated for 5 minutes at room temperature. The reaction is started by bringing the temperature to 37° C. and adding 16 μl substrate. Total reaction volume is 50 μl.
In the Tables 8, 9 and 10, A≦[…]<B≦0.1 μM; 0.1 μM<C≦1 μM; and 1 μM<D≦10 μM.
What is called IC50 is the point on the concentration scale where inhibition reaches its midpoint. For the compound `O=C(NO)c1ccc(CN2c3ccccc3C=Cc3ccccc32)cc1` [(Z)-4-((5H-dibenzo[b,f]azepin-5-yl)methyl)-N-hydroxybenzamide], the IC50 was less than 0.05 µM.

With `O=C(CCCCN1c2ccccc2C=Cc2ccccc21)NO` [(Z)-5-(5H-dibenzo[b,f]azepin-5-yl)-N-hydroxypentanamide], the IC50 fell in the range of 0.1 to 1 µM.

With `O=C(CCCCCN1c2ccccc2C=Cc2ccccc21)NO` [(Z)-6-(5H-dibenzo[b,f]azepin-5-yl)-N-hydroxyhexanamide], the IC50 is less than 0.05 µM.

Take `O=C(CCCCCC(=O)N1c2ccccc2C=Cc2ccccc21)NO` [(Z)-7-(5H-dibenzo[b,f]azepin-5-yl)-N-hydroxy-7-oxoheptanamide]: the IC50 is less than 0.05 µM.

Take `O=C(CCCCCCN1c2ccccc2C=Cc2ccccc21)NO` [(Z)-7-(5H-dibenzo[b,f]azepin-5-yl)-N-hydroxyheptanamide]: the IC50 is less than 0.05 µM.

`O=C(CCCCCCC(=O)N1c2ccccc2C=Cc2ccccc21)NO` [(Z)-8-(5H-dibenzo[b,f]azepin-5-yl)-N-hydroxy-8-oxooctanamide]: the IC50 lay in the range of 0.1 to 1 µM.

Take `CN1C(=O)CN=C(c2ccccc2)c2ccc(CCC(=O)NO)cc21` [(Z)-N-hydroxy-3-(1-methyl-2-oxo-5-phenyl-2,3-dihydro-1H-benzo[e][1,4]diazepin-8-yl)propanamide]: the 50% inhibitory concentration (IC50) lay within 0.1 to 1 µM.

For `CN1C(=O)CN=C(c2ccc(C(=O)NO)cc2)c2ccccc21` [(Z)-N-hydroxy-4-(1-methyl-2-oxo-2,3-dihydro-1H-benzo[e][1,4]diazepin-5-yl)benzamide], the IC50 was 0.1 to 1 µM.

Still in this assay, the particulars now being: read-out: HDAC Inhibtion (IC50 μM) HDAC Enzyme.
For the compound `O=C(NO)c1ccc(C2=Nc3ccccc3N(C3CC3)c3ncccc32)cc1` [(Z)-4-(11-cyclopropyl-11H-benzo[b]pyrido[2,3-e][1,4]diazepin-5-yl)-N-hydroxybenzamide], the IC50 is less than 0.05 µM.

Regarding `CCN1c2ccccc2N=C(c2ccc(C(=O)NO)cc2)c2cccnc21` [(Z)-4-(11-ethyl-11H-benzo[b]pyrido[2,3-e][1,4]diazepin-5-yl)-N-hydroxybenzamide], the IC50 was less than 0.05 µM.

Take `O=C(NO)c1ccc(C2=Nc3ccccc3Oc3ncccc32)cc1` [(Z)-4-(benzo[b]pyrido[3,2-f][1,4]oxazepin-5-yl)-N-hydroxybenzamide]: the IC50 is 0.05 to 0.1 µM.

Turning to `O=C(NO)c1ccc(C2=Nc3ccccc3Oc3cnccc32)cc1` [(Z)-4-(benzo[b]pyrido[4,3-f][1,4]oxazepin-5-yl)-N-hydroxybenzamide], the IC50 fell in the range of 0.1 to 1 µM.

In the case of `O=C(NO)c1ccc(C2=Nc3cccnc3Oc3ccccc32)cc1` [(Z)-4-(benzo[f]pyrido[2,3-b][1,4]oxazepin-6-yl)-N-hydroxybenzamide], the 50% inhibitory concentration (IC50) was less than 0.05 µM.

Turning to `O=C(NO)c1ccc(C2=Nc3ccsc3Oc3ccccc32)cc1` [(Z)-4-(benzo[f]thieno[2,3-b][1,4]oxazepin-5-yl)-N-hydroxybenzamide], the IC50 lay in the range of 0.1 to 1 µM.

For the compound `O=C(NO)c1ccc(C2=Nc3ccccc3Oc3ccccc32)cc1F` [(Z)-4-(dibenzo[b,f][1,4]oxazepin-11-yl)-2-fluoro-N-hydroxybenzamide], the IC50 fell in the range of 0.1 to 1 µM.

Regarding `O=C(NO)c1ccc(C2=Nc3ccccc3Oc3ccccc32)cc1` [(Z)-4-(dibenzo[b,f][1,4]oxazepin-11-yl)-N-hydroxybenzamide], the IC50 is less than 0.05 µM.

As for `O=C(NO)c1ccc(C2=Nc3ccccc3Sc3ccccc32)cc1` [(Z)-4-(dibenzo[b,f][1,4]thiazepin-11-yl)-N-hydroxybenzamide], the IC50 was 0.1 to 1 µM.

With `O=C(NO)c1ccc(C2=Nc3ccccc3Oc3c[n+]([O-])ccc32)cc1` [(Z)-5-(4-(hydroxycarbamoyl)phenyl)benzo[b]pyrido[4,3-f][1,4]oxazepine 2-oxide], the IC50 was 0.1 to 1 µM.

Regarding `COc1cccc2c1C(c1ccc(C(=O)NO)cc1)=Nc1ccccc1O2` [(Z)-N-hydroxy-4-(1-methoxydibenzo[b,f][1,4]oxazepin-11-yl)benzamide], the IC50 fell in the range of 0.1 to 1 µM.

As for `O=C(NO)c1ccc(C2=Nc3ccc(C(F)(F)F)nc3Oc3ccccc32)cc1` [(Z)-N-hydroxy-4-(2-(trifluoromethyl)benzo[f]pyrido[2,3-b][1,4]oxazepin-6-yl)benzamide], the IC50 lay in the range of 0.05 to 0.1 µM.

As for `COc1ccc2c(c1)C(c1ccc(C(=O)NO)cc1)=Nc1ccccc1O2` [(Z)-N-hydroxy-4-(2-methoxydibenzo[b,f][1,4]oxazepin-11-yl)benzamide], the IC50 is 0.1 to 1 µM.

Turning to `O=C(NO)c1ccc(C2=Nc3ccccc3Oc3cc(C(F)(F)F)ccc32)cc1` [(Z)-N-hydroxy-4-(3-(trifluoromethyl)dibenzo[b,f][1,4]oxazepin-11-yl)benzamide], the IC50 fell in the range of 0.05 to 0.1 µM.

In the case of `COc1ccc2c(c1)Oc1ccccc1N=C2c1ccc(C(=O)NO)cc1` [(Z)-N-hydroxy-4-(3-methoxydibenzo[b,f][1,4]oxazepin-11-yl)benzamide], the IC50 lay in the range of 0.1 to 1 µM.

In the case of `Cc1ccc2c(c1)Oc1ccccc1N=C2c1ccc(C(=O)NO)cc1` [(Z)-N-hydroxy-4-(3-methyldibenzo[b,f][1,4]oxazepin-11-yl)benzamide], the IC50 was less than 0.05 µM.

On to `O=C(NO)c1ccc(C2=Nc3ccccc3Oc3cc(N4CCOCC4)ccc32)cc1` [(Z)-N-hydroxy-4-(3-morpholinodibenzo[b,f][1,4]oxazepin-11-yl)benzamide], for which the 50% inhibitory concentration (IC50) lay within 0.1 to 1 µM.

Take `COCCOc1cccc2c1Oc1ccccc1N=C2c1ccc(C(=O)NO)cc1` [(Z)-N-hydroxy-4-(4-(2-methoxyethoxy)dibenzo[b,f][1,4]oxazepin-11-yl)benzamide]: the IC50 was less than 0.05 µM.

For `O=C(NO)c1ccc(C2=Nc3ccccc3Oc3c(OCCN4CCOCC4)cccc32)cc1` [(Z)-N-hydroxy-4-(4-(2-morpholinoethoxy)dibenzo[b,f][1,4]oxazepin-11-yl)benzamide], the IC50 is less than 0.05 µM.

Consider `C[S+]([O-])c1cccc2c1Oc1ccccc1N=C2c1ccc(C(=O)NO)cc1` (stereo not shown) [(Z)-N-hydroxy-4-(4-(methylsulfinyl)dibenzo[b,f][1,4]oxazepin-11-yl)benzamide], for which the half-inhibitory concentration (IC50) fell in the range of 0.05 to 0.1 µM.

Regarding `CS(=O)(=O)c1cccc2c1Oc1ccccc1N=C2c1ccc(C(=O)NO)cc1` [(Z)-N-hydroxy-4-(4-(methylsulfonyl)dibenzo[b,f][1,4]oxazepin-11-yl)benzamide], the concentration for half-maximal inhibition (IC50) is less than 0.05 µM.

Turning to `CSc1cccc2c1Oc1ccccc1N=C2c1ccc(C(=O)NO)cc1` [(Z)-N-hydroxy-4-(4-(methylthio)dibenzo[b,f][1,4]oxazepin-11-yl)benzamide], the IC50 was less than 0.05 µM.

For the compound `O=C(NO)c1ccc(C2=Nc3ccccc3Oc3c(OC(F)(F)F)cccc32)cc1` [(Z)-N-hydroxy-4-(4-(trifluoromethoxy)dibenzo[b,f][1,4]oxazepin-11-yl)benzamide], the IC50 was in the range of 0.1 to 1 µM.

For `O=C(NO)c1ccc(C2=Nc3ccccc3Oc3c2cccc3C(F)(F)F)cc1` [(Z)-N-hydroxy-4-(4-(trifluoromethyl)dibenzo[b,f][1,4]oxazepin-11-yl)benzamide], the IC50 was less than 0.05 µM.

Take `O=C(NO)c1ccc(C2=Nc3ccccc3Oc3c(O)cccc32)cc1` [(Z)-N-hydroxy-4-(4-hydroxydibenzo[b,f][1,4]oxazepin-11-yl)benzamide]: the half-maximal inhibitory concentration (IC50) was in the range of 0.05 to 0.1 µM.

As to `COc1cccc2c1Oc1ccc(C(F)(F)F)cc1N=C2c1ccc(C(=O)NO)cc1` [(Z)-N-hydroxy-4-(4-methoxy-8-(trifluoromethyl)dibenzo[b,f][1,4]oxazepin-11-yl)benzamide], the IC50 fell in the range of 0.1 to 1 µM.

`COc1cccc2c1Oc1ccccc1N=C2c1ccc(C(=O)NO)cc1` [(Z)-N-hydroxy-4-(4-methoxydibenzo[b,f][1,4]oxazepin-11-yl)benzamide]: the half-maximal inhibitory concentration (IC50) was 0.05 to 0.1 µM.

As for `Cc1cccc2c1Oc1ccccc1N=C2c1ccc(C(=O)NO)cc1` [(Z)-N-hydroxy-4-(4-methyldibenzo[b,f][1,4]oxazepin-11-yl)benzamide], the IC50 was in the range of 0.05 to 0.1 µM.

For `CCCc1cccc2c1Oc1ccccc1N=C2c1ccc(C(=O)NO)cc1` [(Z)-N-hydroxy-4-(4-propyldibenzo[b,f][1,4]oxazepin-11-yl)benzamide], the IC50 lay in the range of 0.1 to 1 µM.

As to `COCCN1c2ccccc2N=C(c2ccc(C(=O)NO)cc2)c2ccccc21` [(Z)-N-hydroxy-4-(5-(2-methoxyethyl)-5H-dibenzo[b,e][1,4]diazepin-11-yl)benzamide], the IC50 fell in the range of 0.1 to 1 µM.

`O=C(NO)c1ccc(C2=Nc3ccccc3N(CCN3CCOCC3)c3ccccc32)cc1` [(Z)-N-hydroxy-4-(5-(2-morpholinoethyl)-5H-dibenzo[b,e][1,4]diazepin-11-yl)benzamide]: the IC50 was in the range of 0.1 to 1 µM.

For `CC(C)N1c2ccccc2N=C(c2ccc(C(=O)NO)cc2)c2ccccc21` [(Z)-N-hydroxy-4-(5-isopropyl-5H-dibenzo[b,e][1,4]diazepin-11-yl)benzamide], the IC50 was less than 0.05 µM.

Consider `Cc1cccc2c1Oc1ccccc1C(c1ccc(C(=O)NO)cc1)=N2` [(Z)-N-hydroxy-4-(6-methyldibenzo[b,f][1,4]oxazepin-11-yl)benzamide], for which the IC50 lay within 0.1 to 1 µM.

Turning to `O=C(NO)c1ccc(C2=Nc3ccc(C(F)(F)F)cc3Oc3ccccc32)cc1` [(Z)-N-hydroxy-4-(7-(trifluoromethyl)dibenzo[b,f][1,4]oxazepin-11-yl)benzamide], the IC50 is 0.1 to 1 µM.

In the case of `O=C(NO)c1ccc(C2=Nc3cc(C(F)(F)F)ccc3Oc3ccccc32)cc1` [(Z)-N-hydroxy-4-(8-(trifluoromethyl)dibenzo[b,f][1,4]oxazepin-11-yl)benzamide], the IC50 fell in the range of 0.1 to 1 µM.

Take `Cc1ccc2c(c1)N=C(c1ccc(C(=O)NO)cc1)c1ccccc1O2` [(Z)-N-hydroxy-4-(8-methyldibenzo[b,f][1,4]oxazepin-11-yl)benzamide]: the IC50 lay within 0.05 to 0.1 µM.

As to `O=C(NO)c1ccc(C2=Nc3ccccc3N(CCN3CCOCC3)c3ncccc32)cc1` [(Z)-N-hydroxy-4-(11-(2-morpholinoethyl)-11H-benzo[b]pyrido[2,3-e][1,4]diazepin-5-yl)benzamide], the IC50 fell in the range of 0.05 to 0.1 µM.

As to `O=C(NO)c1ccc(C2=Nc3ccccc3N(CCCN3CCOCC3)c3ncccc32)cc1` [(Z)-N-hydroxy-4-(11-(3-morpholinopropyl)-11H-benzo[b]pyrido[2,3-e][1,4]diazepin-5-yl)benzamide], the IC50 lay in the range of 0.1 to 1 µM.

(Values after patent US8399452B2, “Dibenzo[b,f][1,4]oxazepin-11-yl-N-hydroxybenzamides as HDAC inhibitors” (Methylgene Inc., priority 2006, dated 2013).)
